{"source": "patent US20140155580A1", "about": "“TRANSGENIC AVES PRODUCING HUMAN POLYCLONAL ANTIBODIES” (Synageva BioPharma Corp., priority 2003, published 2014)", "tested_on": "chicken embryonic stem cells", "assay": "Titration kill curve: cES cells in culture exposed to puromycin or neomycin", "assay_type": "cell-based", "set-up": "key to Morphology of cES cells: ES: ES cells are present.; diff: ES cells are differentiated.; gone: no morphologically recognizable cells are present", "method": "In a preferred embodiment, the concentration of puromycin required for selecting transfected cells is calculated as a titration kill curve. Titration kill curves for chicken embryonic stem cells are established by exposing cells in culture to puromycin concentrations varying from 0.0 to 1.0 μg/ml for 10 days (Table 7) and neomycin concentrations varying from 0.0 to 200 μg/ml (Table 8). The medium is changed every 2 days and fresh puromycin or neomycin is added. […] Puromycin concentrations of 0.3-1.0 μg/ml are used for selection of the transfected cultures. Neomycin concentrations over 40 μg/ml eliminated all cES cells within 7 days (Table 8)."}
{"smiles": "COc1ccc(C[C@H](N)C(=O)N[C@H]2[C@@H](O)[C@H](n3cnc4c(N(C)C)ncnc43)O[C@@H]2CO)cc1", "note": "[Puromycin, puromycin]", "values": [{"measurement": "Presence of ES cells in wells after exposure", "setting": "0.3 μg/ml puromycin, 3 changes of medium with fresh puromycin over a six day period", "result": "absent from all wells"}, {"measurement": "Morphology of cES cells", "setting": "puromycin 0.1 μg/ml, day 1 under selection", "result": "ES"}, {"measurement": "Morphology of cES cells", "setting": "puromycin 0.1 μg/ml, day 2 under selection", "result": "ES"}, {"measurement": "Morphology of cES cells", "setting": "puromycin 0.1 μg/ml, day 3 under selection", "result": "ES"}, {"measurement": "Morphology of cES cells", "setting": "puromycin 0.1 μg/ml, day 4 under selection", "result": "ES"}, {"measurement": "Morphology of cES cells", "setting": "puromycin 0.1 μg/ml, day 5 under selection", "result": "ES"}, {"measurement": "Morphology of cES cells", "setting": "puromycin 0.1 μg/ml, day 6 under selection", "result": "ES"}, {"measurement": "Morphology of cES cells", "setting": "puromycin 0.1 μg/ml, day 7 under selection", "result": "ES"}, {"measurement": "Morphology of cES cells", "setting": "puromycin 0.1 μg/ml, day 8 under selection", "result": "ES"}, {"measurement": "Morphology of cES cells", "setting": "puromycin 0.1 μg/ml, day 9 under selection", "result": "ES"}, {"measurement": "Morphology of cES cells", "setting": "puromycin 0.1 μg/ml, day 10 under selection", "result": "ES"}, {"measurement": "Morphology of cES cells", "setting": "puromycin 0.2 μg/ml, day 1 under selection", "result": "ES"}, {"measurement": "Morphology of cES cells", "setting": "puromycin 0.2 μg/ml, day 2 under selection", "result": "ES"}, {"measurement": "Morphology of cES cells", "setting": "puromycin 0.2 μg/ml, day 3 under selection", "result": "ES"}, {"measurement": "Morphology of cES cells", "setting": "puromycin 0.2 μg/ml, day 4 under selection", "result": "ES"}, {"measurement": "Morphology of cES cells", "setting": "puromycin 0.2 μg/ml, day 5 under selection", "result": "ES"}, {"measurement": "Morphology of cES cells", "setting": "puromycin 0.2 μg/ml, day 6 under selection", "result": "ES"}, {"measurement": "Morphology of cES cells", "setting": "puromycin 0.2 μg/ml, day 7 under selection", "result": "ES"}, {"measurement": "Morphology of cES cells", "setting": "puromycin 0.2 μg/ml, day 8 under selection", "result": "ES"}, {"measurement": "Morphology of cES cells", "setting": "puromycin 0.2 μg/ml, day 9 under selection", "result": "ES"}, {"measurement": "Morphology of cES cells", "setting": "puromycin 0.2 μg/ml, day 10 under selection", "result": "ES"}, {"measurement": "Morphology of cES cells", "setting": "puromycin 0.25 μg/ml, day 1 under selection", "result": "ES"}, {"measurement": "Morphology of cES cells", "setting": "puromycin 0.25 μg/ml, day 2 under selection", "result": "ES"}, {"measurement": "Morphology of cES cells", "setting": "puromycin 0.25 μg/ml, day 3 under selection", "result": "ES"}, {"measurement": "Morphology of cES cells", "setting": "puromycin 0.25 μg/ml, day 4 under selection", "result": "ES"}, {"measurement": "Morphology of cES cells", "setting": "puromycin 0.25 μg/ml, day 5 under selection", "result": "ES"}, {"measurement": "Morphology of cES cells", "setting": "puromycin 0.25 μg/ml, day 6 under selection", "result": "diff"}, {"measurement": "Morphology of cES cells", "setting": "puromycin 0.25 μg/ml, day 7 under selection", "result": "diff"}, {"measurement": "Morphology of cES cells", "setting": "puromycin 0.3 μg/ml, day 1 under selection", "result": "ES"}, {"measurement": "Morphology of cES cells", "setting": "puromycin 0.3 μg/ml, day 2 under selection", "result": "ES"}, {"measurement": "Morphology of cES cells", "setting": "puromycin 0.3 μg/ml, day 3 under selection", "result": "diff"}, {"measurement": "Morphology of cES cells", "setting": "puromycin 0.3 μg/ml, day 6 under selection", "result": "gone"}, {"measurement": "Morphology of cES cells", "setting": "puromycin 0.3 μg/ml, day 7 under selection", "result": "gone"}, {"measurement": "Morphology of cES cells", "setting": "puromycin 0.3 μg/ml, day 8 under selection", "result": "gone"}, {"measurement": "Morphology of cES cells", "setting": "puromycin 0.3 μg/ml, day 9 under selection", "result": "gone"}, {"measurement": "Morphology of cES cells", "setting": "puromycin 0.3 μg/ml, day 10 under selection", "result": "gone"}, {"measurement": "Morphology of cES cells", "setting": "puromycin 0.4 μg/ml, day 1 under selection", "result": "ES"}, {"measurement": "Morphology of cES cells", "setting": "puromycin 0.4 μg/ml, day 2 under selection", "result": "diff"}, {"measurement": "Morphology of cES cells", "setting": "puromycin 0.4 μg/ml, day 3 under selection", "result": "gone"}, {"measurement": "Morphology of cES cells", "setting": "puromycin 0.4 μg/ml, day 4 under selection", "result": "gone"}, {"measurement": "Morphology of cES cells", "setting": "puromycin 0.4 μg/ml, day 5 under selection", "result": "gone"}, {"measurement": "Morphology of cES cells", "setting": "puromycin 0.4 μg/ml, day 6 under selection", "result": "gone"}, {"measurement": "Morphology of cES cells", "setting": "puromycin 0.4 μg/ml, day 7 under selection", "result": "gone"}, {"measurement": "Morphology of cES cells", "setting": "puromycin 0.4 μg/ml, day 8 under selection", "result": "gone"}, {"measurement": "Morphology of cES cells", "setting": "puromycin 0.4 μg/ml, day 9 under selection", "result": "gone"}, {"measurement": "Morphology of cES cells", "setting": "puromycin 0.4 μg/ml, day 10 under selection", "result": "gone"}, {"measurement": "Morphology of cES cells", "setting": "puromycin 0.5 μg/ml, day 1 under selection", "result": "diff"}, {"measurement": "Morphology of cES cells", "setting": "puromycin 0.5 μg/ml, day 2 under selection", "result": "gone"}, {"measurement": "Morphology of cES cells", "setting": "puromycin 0.5 μg/ml, day 3 under selection", "result": "gone"}, {"measurement": "Morphology of cES cells", "setting": "puromycin 0.5 μg/ml, day 4 under selection", "result": "gone"}, {"measurement": "Morphology of cES cells", "setting": "puromycin 0.5 μg/ml, day 5 under selection", "result": "gone"}, {"measurement": "Morphology of cES cells", "setting": "puromycin 0.5 μg/ml, day 6 under selection", "result": "gone"}, {"measurement": "Morphology of cES cells", "setting": "puromycin 0.5 μg/ml, day 7 under selection", "result": "gone"}, {"measurement": "Morphology of cES cells", "setting": "puromycin 0.5 μg/ml, day 8 under selection", "result": "gone"}, {"measurement": "Morphology of cES cells", "setting": "puromycin 0.5 μg/ml, day 9 under selection", "result": "gone"}, {"measurement": "Morphology of cES cells", "setting": "puromycin 0.5 μg/ml, day 10 under selection", "result": "gone"}, {"measurement": "Morphology of cES cells", "setting": "puromycin 0.6 μg/ml, day 1 under selection", "result": "diff"}, {"measurement": "Morphology of cES cells", "setting": "puromycin 0.6 μg/ml, day 2 under selection", "result": "gone"}, {"measurement": "Morphology of cES cells", "setting": "puromycin 0.6 μg/ml, day 3 under selection", "result": "gone"}, {"measurement": "Morphology of cES cells", "setting": "puromycin 0.6 μg/ml, day 4 under selection", "result": "gone"}, {"measurement": "Morphology of cES cells", "setting": "puromycin 0.6 μg/ml, day 5 under selection", "result": "gone"}, {"measurement": "Morphology of cES cells", "setting": "puromycin 0.6 μg/ml, day 6 under selection", "result": "gone"}, {"measurement": "Morphology of cES cells", "setting": "puromycin 0.6 μg/ml, day 7 under selection", "result": "gone"}, {"measurement": "Morphology of cES cells", "setting": "puromycin 0.6 μg/ml, day 8 under selection", "result": "gone"}, {"measurement": "Morphology of cES cells", "setting": "puromycin 0.6 μg/ml, day 9 under selection", "result": "gone"}, {"measurement": "Morphology of cES cells", "setting": "puromycin 0.6 μg/ml, day 10 under selection", "result": "gone"}, {"measurement": "Morphology of cES cells", "setting": "puromycin 0.7 μg/ml, day 1 under selection", "result": "diff"}, {"measurement": "Morphology of cES cells", "setting": "puromycin 0.7 μg/ml, day 2 under selection", "result": "gone"}, {"measurement": "Morphology of cES cells", "setting": "puromycin 0.7 μg/ml, day 3 under selection", "result": "gone"}, {"measurement": "Morphology of cES cells", "setting": "puromycin 0.7 μg/ml, day 4 under selection", "result": "gone"}, {"measurement": "Morphology of cES cells", "setting": "puromycin 0.7 μg/ml, day 5 under selection", "result": "gone"}, {"measurement": "Morphology of cES cells", "setting": "puromycin 0.7 μg/ml, day 6 under selection", "result": "gone"}, {"measurement": "Morphology of cES cells", "setting": "puromycin 0.7 μg/ml, day 7 under selection", "result": "gone"}, {"measurement": "Morphology of cES cells", "setting": "puromycin 0.7 μg/ml, day 8 under selection", "result": "gone"}, {"measurement": "Morphology of cES cells", "setting": "puromycin 0.7 μg/ml, day 9 under selection", "result": "gone"}, {"measurement": "Morphology of cES cells", "setting": "puromycin 0.7 μg/ml, day 10 under selection", "result": "gone"}, {"measurement": "Morphology of cES cells", "setting": "puromycin 0.8 μg/ml, day 1 under selection", "result": "gone"}, {"measurement": "Morphology of cES cells", "setting": "puromycin 0.8 μg/ml, day 2 under selection", "result": "gone"}, {"measurement": "Morphology of cES cells", "setting": "puromycin 0.8 μg/ml, day 3 under selection", "result": "gone"}, {"measurement": "Morphology of cES cells", "setting": "puromycin 0.8 μg/ml, day 4 under selection", "result": "gone"}, {"measurement": "Morphology of cES cells", "setting": "puromycin 0.8 μg/ml, day 5 under selection", "result": "gone"}, {"measurement": "Morphology of cES cells", "setting": "puromycin 0.8 μg/ml, day 6 under selection", "result": "gone"}, {"measurement": "Morphology of cES cells", "setting": "puromycin 0.8 μg/ml, day 7 under selection", "result": "gone"}, {"measurement": "Morphology of cES cells", "setting": "puromycin 0.8 μg/ml, day 8 under selection", "result": "gone"}, {"measurement": "Morphology of cES cells", "setting": "puromycin 0.8 μg/ml, day 9 under selection", "result": "gone"}, {"measurement": "Morphology of cES cells", "setting": "puromycin 0.8 μg/ml, day 10 under selection", "result": "gone"}]}
